Laboratory results reported in patent EP1129097B1, “NOVEL TYPE CONDENSED PYRIDAZINONE COMPOUNDS” (GYOGYSZERKUTATO INTEZET KFT., priority 1998, dated 2000).

How the values were obtained:
[1] = system: scopolamine-induced memory-deficit in rats; test: passive avoidance test, counter-balancing scopolamine-induced memory-deficit; assay type: in vivo; conditions: oral doses of 50 mg/kg
Procedure: The memory-enhancing effect of the compounds according to the invention was measured by counter-balancing the scopolamine-induced memory-deficit in rats, with oral doses of 50 mg/kg, in the passive avoidance test published by Cumin, R. et al. [Psychopharmacology, 78, 104 (1982)].

AMPA = test: AMPA-induced spreading depression of chick retina; conditions: concentration of 20 µM
Procedure: The AMPA antagonistic effect of the compounds was also tested on spreading depression of chick retina (Sheardown, M. J.: Brain Res., 1993, 607, 189) in a concentration of 20 µM.

Row | Structure (SMILES) | Memory improvement compared to amnesic control (%) [1] [%] | Antagonistic effect on AMPA-induced spreading depression (%) (AMPA)
1 | Cn1ncc2c(c1=O)SCCNC2C(=O)c1ccccc1 (stereo not shown) [Example 3, 5-Benzoyl-8-methyl-2,3,4,5-tetrahydro-9(8H)-pyridazino[4,5-b][1,5]thiazepinone] | 100 | 10
2 | O=c1c2c(cnn1CC=Cc1ccccc1)N(Cc1ccccc1)CCCO2 [Example 7, 5-Benzyl-8-cynnamyl-2,3,4,5-tetrahydro-9(8H)-pyridazino[4,5-b] [1,5]oxazepinone] | 250 | 16
